# Patent publication US20120039905A1, “The Role of p110 delta Signaling in Morbidity and Lung Pathology Induced by Influenza Virus Infection” (priority 2009, published 2012)
# “Also recorded” adds a separate entry of the source.
# How the values were obtained:
# [1] = test system: influenza virus strain PR8; type: cell-based
# [2] = test system: H7N7 A/Equine/London/1416/73 influenza virus strain; design: species or system mice; conditions: mouse, in vivo
compound,measurement,setting,value
Cc1ccccc1-n1c(Cn2cnc3c(N)ncnc32)nc2cccc(C)c2c1=O [IC87114],reduction of viral mRNA production compared to untreated cells,[1],~25 fold
same,influenza virus replication (specific RT-PCR),[1]; 100 μM,inhibits influenza virus replication
same,survival after lethal challenge,[2],increased survival; also recorded: protects mice lethally challenged
